The source made the active and inactive calls. The rule behind the calls is not given here.
How the values were obtained:
[1] = target: T1, Amyloid-beta precursor protein (Homo sapiens, UniProt P05067); test: Inhibition of HFIP-induced human recombinant amyloid beta (1 to 42 residues) aggregation expressed in Escherichia coli at 25 uM measured over 24 hrs by ThT-based fluorescence spectroscopic method relative to control
[2] = target: T1, Amyloid-beta precursor protein
Description: Inhibition of HFIP-induced human recombinant amyloid beta (1 to 40 residues) aggregation expressed in Escherichia coli measured over 24 hrs by ThT-based fluorescence spectroscopic method

Cholinesterase [3] = target: T2, Cholinesterase (Homo sapiens, UniProt P06276)
Description: Inhibition of human BuChE using S-butyrylthiocholine iodide as substrate preincubated for 5 mins followed by substrate addition measured for 60 to 300 secs by Ellman's method

[4] = target: T1, Amyloid-beta precursor protein; test: Inhibition of HFIP-induced human recombinant amyloid beta (1 to 40 residues) aggregation expressed in Escherichia coli at 25 uM measured over 24 hrs by ThT-based fluorescence spectroscopic method relative to control
Acetylcholinesterase = Acetylcholinesterase (Homo sapiens, UniProt P22303)
Description: Inhibition of human AChE using acetylthiocholine iodide as substrate preincubated for 5 mins followed by substrate addition measured for 60 to 300 secs by Ellman's method

[5] = target: T1, Amyloid-beta precursor protein; test: Potency index, ratio of resveratrol IC50 to test compound IC50 for HFIP-induced human recombinant amyloid beta (1 to 42 residues) aggregation
[6] = target: T1, Amyloid-beta precursor protein; test: Potency index, ratio of curcumin IC50 to test compound IC50 for HFIP-induced human recombinant amyloid beta (1 to 40 residues) aggregation
[7] = target: T1, Amyloid-beta precursor protein; test: Inhibition of HFIP-induced human recombinant amyloid beta (1 to 42 residues) aggregation expressed in Escherichia coli assessed as reduction in amyloid beta fibril load measured after 24 hrs by ThT fluorescence assay
[8] = target: T1, Amyloid-beta precursor protein; test: Inhibition of HFIP-induced human recombinant amyloid beta (1 to 42 residues) aggregation expressed in Escherichia coli assessed as reduction in amyloid beta fibril load at 25 uM after 24 hrs by transmission electron microscopic method
Cholinesterase [9] = target: T2, Cholinesterase; test: Potency index, ratio of donepezil IC50 to test compound IC50 for human BuChE
[10] = Antioxidant activity assessed as DPPH radical scavenging activity at 50 uM relative to control; type: functional
[11] = target: T1, Amyloid-beta precursor protein; test: Inhibition of HFIP-induced human recombinant amyloid beta (1 to 40 residues) aggregation expressed in Escherichia coli assessed as reduction in amyloid beta fibril load at 25 uM after 24 hrs by transmission electron microscopic method
[12] = target: T1, Amyloid-beta precursor protein; test: Potency index, ratio of curcumin IC50 to test compound IC50 for HFIP-induced human recombinant amyloid beta (1 to 42 residues) aggregation
[13] = target: T1, Amyloid-beta precursor protein; test: Inhibition of HFIP-induced human recombinant amyloid beta (1 to 40 residues) aggregation expressed in Escherichia coli assessed as reduction in amyloid beta fibril load measured after 24 hrs by ThT fluorescence assay
[14] = Potency index, ratio of test compound to resveratrol antioxidant activity assessed as DPPH radical scavenging activity
[15] = target: T1, Amyloid-beta precursor protein; remark: listed apart in the source
Description: Inhibition of HFIP-induced human recombinant amyloid beta (1 to 42 residues) aggregation expressed in Escherichia coli measured over 24 hrs by ThT-based fluorescence spectroscopic method

T1 sequence (P05067 whole entry, the tested form may be a part): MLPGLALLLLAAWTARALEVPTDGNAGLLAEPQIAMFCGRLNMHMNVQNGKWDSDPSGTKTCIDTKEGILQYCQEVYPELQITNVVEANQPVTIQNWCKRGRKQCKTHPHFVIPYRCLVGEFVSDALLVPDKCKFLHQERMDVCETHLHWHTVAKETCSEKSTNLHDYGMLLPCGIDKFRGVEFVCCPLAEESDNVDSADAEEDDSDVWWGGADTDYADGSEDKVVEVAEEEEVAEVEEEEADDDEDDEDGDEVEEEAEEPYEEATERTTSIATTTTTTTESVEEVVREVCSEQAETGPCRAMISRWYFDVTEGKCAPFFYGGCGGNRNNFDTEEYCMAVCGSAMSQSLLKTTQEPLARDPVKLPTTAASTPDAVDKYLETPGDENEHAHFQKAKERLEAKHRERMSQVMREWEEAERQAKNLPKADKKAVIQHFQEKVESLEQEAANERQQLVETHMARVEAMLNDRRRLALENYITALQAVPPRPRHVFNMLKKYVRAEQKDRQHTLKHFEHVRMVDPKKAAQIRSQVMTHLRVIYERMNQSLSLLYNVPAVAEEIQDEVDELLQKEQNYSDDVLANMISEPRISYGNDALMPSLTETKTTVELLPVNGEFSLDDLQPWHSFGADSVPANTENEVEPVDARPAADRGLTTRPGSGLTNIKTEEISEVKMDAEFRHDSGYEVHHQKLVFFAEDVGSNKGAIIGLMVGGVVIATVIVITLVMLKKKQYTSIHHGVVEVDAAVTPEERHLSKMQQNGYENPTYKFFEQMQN
T2 sequence (P06276 whole entry, the tested form may be a part): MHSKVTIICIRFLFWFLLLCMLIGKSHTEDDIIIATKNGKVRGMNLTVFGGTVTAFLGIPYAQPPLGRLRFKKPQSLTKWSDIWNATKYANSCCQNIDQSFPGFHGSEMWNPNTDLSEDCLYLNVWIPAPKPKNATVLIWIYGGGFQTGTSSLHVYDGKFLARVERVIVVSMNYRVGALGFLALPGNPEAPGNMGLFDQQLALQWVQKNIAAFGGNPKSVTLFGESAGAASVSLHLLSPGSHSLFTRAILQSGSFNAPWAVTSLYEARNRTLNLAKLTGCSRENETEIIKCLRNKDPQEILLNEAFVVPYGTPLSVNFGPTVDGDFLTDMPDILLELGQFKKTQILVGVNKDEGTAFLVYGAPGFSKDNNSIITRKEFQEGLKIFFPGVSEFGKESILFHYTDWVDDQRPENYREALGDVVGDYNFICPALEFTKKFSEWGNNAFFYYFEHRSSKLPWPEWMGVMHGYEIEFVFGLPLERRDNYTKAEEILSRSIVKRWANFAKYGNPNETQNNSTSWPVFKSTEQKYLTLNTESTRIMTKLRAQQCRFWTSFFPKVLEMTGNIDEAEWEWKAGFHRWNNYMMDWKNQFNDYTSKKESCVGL
Chain of Acetylcholinesterase (P22303 whole entry, the tested form may be a part): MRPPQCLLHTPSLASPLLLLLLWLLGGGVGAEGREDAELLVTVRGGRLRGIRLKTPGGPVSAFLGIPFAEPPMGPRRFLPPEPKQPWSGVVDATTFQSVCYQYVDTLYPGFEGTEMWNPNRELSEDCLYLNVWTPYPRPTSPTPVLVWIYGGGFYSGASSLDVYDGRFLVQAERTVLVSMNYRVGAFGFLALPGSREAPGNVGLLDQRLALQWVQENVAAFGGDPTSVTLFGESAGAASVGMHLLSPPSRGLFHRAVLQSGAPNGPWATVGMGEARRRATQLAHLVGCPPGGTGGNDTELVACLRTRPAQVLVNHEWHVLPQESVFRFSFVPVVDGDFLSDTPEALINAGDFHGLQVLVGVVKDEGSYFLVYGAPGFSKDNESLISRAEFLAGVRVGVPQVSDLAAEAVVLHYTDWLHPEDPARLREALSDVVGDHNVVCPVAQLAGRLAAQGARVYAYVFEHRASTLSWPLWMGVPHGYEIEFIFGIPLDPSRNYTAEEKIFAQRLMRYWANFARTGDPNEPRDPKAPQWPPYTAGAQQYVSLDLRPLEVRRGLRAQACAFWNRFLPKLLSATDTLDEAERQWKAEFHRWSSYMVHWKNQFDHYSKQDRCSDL

| Structure (SMILES) | inhibition [1] | IC50 [2] [µM] | IC50 (Cholinesterase [3]) [µM] | inhibition [4] [%] | IC50 (Acetylcholinesterase) [µM] | other results |
| --- | --- | --- | --- | --- | --- | --- |
| CCCNc1nc(NCCc2ccc(OC)c(OC)c2)c2ccccc2n1 | 14% | 4.3 | 24.9 | > 50 | 7 |  |
| Clc1nc(NCCc2ccccc2)c2ccccc2n1 | 36% | 5 |  | > 50 |  |  |
| Nc1nc(NCc2ccccc2)nc2ccccc12 |  |  |  | > 50 |  | Ratio IC50 [5]: 1.8; Ratio IC50 [6]: 1.2 to 1.4; inhibition [7]: Dose-dependent effect; inhibition [8]: Active |
| COc1ccc(CCNc2nc(NC3CC3)nc3ccccc23)cc1OC | 25% | 4.9 | 5.6 | > 50 | 7.2 |  |
| COc1ccc(CNc2nc(NC3CC3)nc3ccccc23)cc1OC | 20% | 8.3 | 29.8 | > 50 | 7.2 |  |
| CC(=O)Nc1nc(NCCc2ccccc2)c2ccccc2n1 |  |  | > 50 |  | 7 |  |
| CNc1nc(NCCc2ccccc2)c2ccccc2n1 | 40% | 2 | 5 | > 50 | 8.7 |  |
| Nc1nc(NCCc2ccccc2)c2ccccc2n1 | 37% |  |  | > 50 |  |  |
| COc1ccc(CCNc2nc(NC(C)C)nc3ccccc23)cc1OC |  |  | 7.8 |  | 7.6 |  |
| COc1ccc(CCNc2nc(N)nc3ccccc23)cc1OC | 45% | 2.7 |  | > 50 |  |  |
| COc1ccc(CNc2nc(NC3CCN(Cc4ccccc4)CC3)nc3ccccc23)cc1OC | 27% | 2.3 |  | > 50 |  | Ratio IC50 [6]: 1.3 |
| Nc1nc(NCCc2ccccc2)nc2ccccc12 | 50% |  |  | > 50 |  | Ratio IC50 (Cholinesterase [9]): 1.5; inhibition [7]: Dose-dependent effect; inhibition [8]: Active |
| CCNc1nc(NCc2ccccc2)c2ccccc2n1 | 24% | 7 | 15.2 | > 50 | 7.5 |  |
| CCCNc1nc(NCc2ccc(OC)c(OC)c2)c2ccccc2n1 | inactive | 1.7 | 30.4 | > 50 | 5.6 |  |
| CNc1nc(NCCc2ccc(OC)c(OC)c2)c2ccccc2n1 | 23.1% | 6.6 | 4.5 | > 50 | 8.5 | inhibition [7]: Dose-dependent effect; inhibition [8]: Active |
| COc1ccc(CNc2nc(N=[N+]=[N-])nc3ccccc23)cc1OC | < 10% | 7.2 |  | > 50 |  |  |
| COc1ccc(CNc2nc(NC(C)C)nc3ccccc23)cc1OC |  |  | 29.8 |  | 6.8 |  |
| COc1ccc(CCNc2nc(NC(N)=O)nc3ccccc23)cc1OC | 33% | 14.4 | > 50 | > 50 | 8.7 |  |
| COc1ccc(CNc2nc(NC(N)=O)nc3ccccc23)cc1OC | 40% | 8.3 | > 50 | > 50 | 8.6 |  |
| CC(C)Nc1nc(NCc2ccccc2)c2ccccc2n1 | 13% | 4.4 | 11.7 | > 50 | 6.4 |  |
| CNc1nc(NCc2ccc(OC)c(OC)c2)c2ccccc2n1 |  |  | 30.5 |  | 7.3 |  |
| CCCNc1nc(NCCc2ccccc2)c2ccccc2n1 | 33% | 4.4 | 5 | > 50 | 7.2 |  |
| NC(=O)Cc1nc(NCc2ccccc2)c2ccccc2n1 |  |  | > 50 |  | 7.2 |  |
| Oc1nc(NCCc2ccccc2)c2ccccc2n1 | inactive | 11.2 |  | > 50 |  | Activity [10]: 51.5% |
| COc1ccc(CNc2nc(N)nc3ccccc23)cc1OC | 34% | 8.4 |  | > 50 |  |  |
| Nc1nc(NCc2ccccc2)c2ccccc2n1 | < 10% |  |  | > 50 |  |  |

| Structure (SMILES) | inhibition [1] | IC50 [2] [µM] | IC50 (Cholinesterase [3]) [µM] | inhibition [4] [%] | IC50 (Acetylcholinesterase) [µM] | other results |
| --- | --- | --- | --- | --- | --- | --- |
| COc1ccc(CCNc2ncnc3ccccc23)cc1OC | 36% | 12 |  | > 50 |  |  |
| Oc1ccc(/C=C/c2cc(O)cc(O)c2)cc1 |  |  |  |  |  | Activity [10]: 41.9% |
| Oc1nc(NCc2ccccc2)c2ccccc2n1 | 24% | 0.27 |  | > 50 |  | Ratio IC50 [5]: 4; Activity [10]: 47%; inhibition [11]: Active; Ratio IC50 [12]: 12; inhibition [13]: Dose-dependent effect |
| COc1ccc(CNc2nc(CC(N)=O)nc3ccccc23)cc1OC |  |  | > 50 |  | 7.4 |  |
| NC(=O)Nc1nc(NCCc2ccccc2)c2ccccc2n1 | 46% | 1 | > 50 | > 50 | 7.9 | inhibition [11]: Active; inhibition [13]: Dose-dependent effect |
| CCCNc1nc(NCc2ccccc2)c2ccccc2n1 | 26% | 5 | 14.4 | > 50 | 7.8 |  |
| c1ccc(CNc2nc(NC3CC3)nc3ccccc23)cc1 | 31% | 5.7 | 22 | > 50 | 6.6 |  |
| [N-]=[N+]=Nc1nc(NCc2ccccc2)c2ccccc2n1 | 37% | 2.6 |  | > 50 |  |  |
| COc1ccc(CCNc2nc(CC(N)=O)nc3ccccc23)cc1OC |  |  | > 50 |  | 12.5 |  |
| COc1ccc(CCNc2nc(NC(C)=O)nc3ccccc23)cc1OC |  |  | > 50 |  | 7.4 |  |
| Cc1c(C)c2c(c(C)c1O)CCC(C)(C(=O)O)O2 (configuration not stated) |  |  |  |  |  | Activity [10]: 99.6% |
| NC(=O)Nc1nc(NCc2ccccc2)c2ccccc2n1 | 48% | 13.3 | > 50 | > 50 | 8.3 |  |
| CC(=O)Nc1nc(NCc2ccccc2)c2ccccc2n1 | 31% | 1.9 | > 50 | > 50 | 7.5 |  |
| COc1ccc(CNc2nc(O)nc3ccccc23)cc1OC | < 10% | 7.8 |  | > 50 |  | Activity [10]: 63.4%; Ratio [14]: 1.5 |
| COc1ccc(CCNc2nc(O)nc3ccccc23)cc1OC | 32% | 10.4 |  | > 50 |  | Activity [10]: 33.9% |
| CCNc1nc(NCCc2ccc(OC)c(OC)c2)c2ccccc2n1 | 41% | 2.9 | 14 | > 50 | 7.5 |  |
| Clc1nc(NCc2ccccc2)c2ccccc2n1 | 22% | 16.7 |  | > 50 |  |  |
| COc1ccc(CNc2nc(NC(C)=O)nc3ccccc23)cc1OC | < 10% | 3.1 | > 50 | > 50 | 8.5 |  |
| NC(=O)Cc1nc(NCCc2ccccc2)c2ccccc2n1 |  |  | 3.5 |  | 7.3 |  |
| c1ccc(CCNc2nc(NC3CC3)nc3ccccc23)cc1 | 22% | 0.79 | 11.4 | > 50 | 8.6 | inhibition [11]: Active; Ratio IC50 [6]: 4.1; inhibition [13]: Dose-dependent effect |
| CC(C)Nc1nc(NCCc2ccccc2)c2ccccc2n1 | inactive | 3.8 | 1.6 | > 50 | 7.2 | Ratio IC50 (Cholinesterase [9]): 2.3 |
| COc1ccc(CCNc2nc(Cl)nc3ccccc23)cc1OC |  | 8.2 |  | > 50 |  | IC50 [15]: 13 µM; inhibition [7]: Dose-dependent effect; inhibition [8]: Active |
| CCNc1nc(NCCc2ccccc2)c2ccccc2n1 | 47% | 1.4 | 3.2 | > 50 | 7.6 | inhibition [11]: Active; inhibition [13]: Dose-dependent effect |
| c1ccc(CCNc2ncnc3ccccc23)cc1 | 32% | 11.9 |  | > 50 |  |  |
| CCNc1nc(NCc2ccc(OC)c(OC)c2)c2ccccc2n1 |  |  | 25 |  | 6.3 |  |
| CNc1nc(NCc2ccccc2)c2ccccc2n1 |  |  | 18.8 |  | 8 |  |
